Source: PMC8199213, “Pharmacophore-Based Virtual Screening of Novel Competitive Inhibitors of the Neurodegenerative Disease Target Kynurenine-3-Monooxygenase” (Molecules, 2021)

Key:
[1] = target: T1, human kynurenine-3-monooxygenase (hKMO) (Homo sapiens, UniProt O15229); assay: KMO NADPH-consumption assay (BPS Bioscience KMO Screening Kit), dose-response; positive control; assay type: biochemical
T1 construct: gene KMO; purified KMO protein with C-terminal His-FLAG-tag

[2] = target: T1, human kynurenine-3-monooxygenase (hKMO); assay: KMO NADPH-consumption assay; […] inhibition at […], […] at […]; assay type: biochemical

T1 sequence (O15229 whole entry): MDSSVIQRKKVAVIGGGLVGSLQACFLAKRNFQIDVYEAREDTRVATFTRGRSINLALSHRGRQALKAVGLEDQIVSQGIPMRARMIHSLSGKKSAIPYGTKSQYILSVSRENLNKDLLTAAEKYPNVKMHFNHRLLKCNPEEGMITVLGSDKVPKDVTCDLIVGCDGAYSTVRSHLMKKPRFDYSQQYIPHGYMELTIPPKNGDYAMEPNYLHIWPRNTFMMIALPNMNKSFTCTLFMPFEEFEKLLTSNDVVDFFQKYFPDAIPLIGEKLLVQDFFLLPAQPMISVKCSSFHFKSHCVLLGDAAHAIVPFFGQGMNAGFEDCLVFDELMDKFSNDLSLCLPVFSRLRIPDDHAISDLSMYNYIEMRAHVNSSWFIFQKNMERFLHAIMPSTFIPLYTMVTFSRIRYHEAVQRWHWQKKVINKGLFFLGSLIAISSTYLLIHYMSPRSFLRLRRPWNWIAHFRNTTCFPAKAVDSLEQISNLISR

**Q.** With `COc1ccc(S(=O)(=O)Nc2nc(-c3cccc([N+](=O)[O-])c3)cs2)cc1OC` [Ro 61-8084] as the compound, how does the IC50 [1] read?
**A.** 727 ± 88 nM

**Q.** `Cc1cc2nc(CCC(=O)O)c(=O)[nH]c2cc1C` [VS6, F6548-0495] was tested. Which IC50 [2] did it give?
**A.** < 10000 nM
